Patent US9381187B2, “Radiation countermeasure agents” (PALOMA PHARMACEUTICALS, INC., priority 2011, dated 2016)

Tests used:
[1] = test system: HOS cells (human osteoblast cells); assay: Cellular radioprotection, colony formation assay (cell survival after gamma radiation); assay type: cell-based; conditions: for survival: HOS cells under radioprotective treatment conditions (FIG. 2); for DRF: in vitro comparison with amifostine, HOS cells, gamma radiation (FIG. 2)
Method: Radiation protection by P529 is evaluated using a human osteoblast cell model (HOS cells). The effect of P529 (10 μM, 4 hr) on cell survival after radiation is assessed; cell survival was measured using the colony formation assay.

HOS cells = assay: Chromosomal radiation protection, metaphase aberration scoring; assay type: cell-based, human; conditions: for Breaks / Fragments / Percent Aberrant Cells / Rings + Dicentrics: Radiation + P529 (25 uM, 12 hrs pre-radiation)
Method: Non-tumorigenic immortalized human osteosarcoma cells (HOS) are exposed to increasing doses of gamma radiation (O-4 Gy; 6.6 Gy/min). Control cells receive no drug; Drug-treated cells receive P529 (25 uM, 12 hrs pre-radiation). Metaphase plates are prepared from control and drug-treated cells (Gupta, Br J Radiol, 59:625 1986). A total of 100 metaphases are examined per group/dose. Aberrant metaphases, chromatid and chromosome breaks, fragments, rings, and dicentrics are scored under a light microscope. Aberrations are identified using criteria given by Savage (J Med Genetics 12:103-122, 1976).

[2] = test system: C57 mice exposed to gamma radiation; assay: Mitigation of radiation effect in vivo (TBI 9 Gy); conditions: female C57 mice, 9 Gy gamma radiation; ip 100 μl on day 1 and days 3-26
Text: Sixteen female C57 mice are exposed to gamma radiation (9 Gy). Group 1 received radiation only (no drug). Group 2 received radiation and P529 as noted in the following schedule: […]

COc1ccc(COc2cc3oc(=O)c4cc(C(C)O)ccc4c3cc2OC)cc1 (stereo not shown) [P529, 8-(1-Hydroxy-ethyl)-2-methoxy-3-(4-methoxy-benzyloxy)-benzo[c]chromen-6-one]
dose-reduction factor (DRF) ([1]; HOS cells pretreated 10 μM for 4 hr prior to gamma radiation, at the 0.005 survival fraction (FIG. 1)): 1.38 | survival [1]: 0.99 | DRF [1]: 1.34 | radiation resistance of cells ([1]; pretreated 10 μM for 4 hr prior to radiation exposure): significant radiation resistance | Breaks (HOS cells; dose 0 Gy): .0016 ± .0002 | Fragments (HOS cells; dose 0 Gy): .007 ± .0009 | Percent Aberrant Cells (HOS cells; dose 0 Gy): .66 ± .07% | Rings + Dicentrics (HOS cells; dose 0 Gy): 0.00 ± 0.0 | Breaks (HOS cells; dose 1 Gy): .0013 ± .0002 | Fragments (HOS cells; dose 1 Gy): .05 ± .006 | Percent Aberrant Cells (HOS cells; dose 1 Gy): 3.1 ± .033% | Rings + Dicentrics (HOS cells; dose 1 Gy): 0.00 ± 0.0 | Breaks (HOS cells; dose 2 Gy): .0018 ± .0002 | Fragments (HOS cells; dose 2 Gy): .118 ± .022 | Percent Aberrant Cells (HOS cells; dose 2 Gy): 5.0 ± .052% | Rings + Dicentrics (HOS cells; dose 2 Gy): .003 ± .0004 | Breaks (HOS cells; dose 3 Gy): .0022 ± .0003 | Fragments (HOS cells; dose 3 Gy): .23 ± .028 | Percent Aberrant Cells (HOS cells; dose 3 Gy): 11.4 ± 1.22% | Rings + Dicentrics (HOS cells; dose 3 Gy): .005 ± .0004 | Breaks (HOS cells; dose 4 Gy): .0039 ± .0004 | Fragments (HOS cells; dose 4 Gy): .30 ± .031 | Percent Aberrant Cells (HOS cells; dose 4 Gy): 19.5 ± 1.29% | Rings + Dicentrics (HOS cells; dose 4 Gy): .017 ± .002 | chromosomal protection from radiation exposure (HOS cells; human HOS cells, Table 2): can provide chromosomal protection from radiation exposure | mitigation of radiation effect and damage [2]: can mitigate the radiation effect

NCCCNCCSP(=O)(O)O [amifostine, reference compound]
survival [1]: 0.35 | DRF [1]: 1.45
